# From patent publication US10130634B2, “Therapeutic agent for ophthalmic disease” (MITSUBISHI TANABE PHARMA CORPORATION, priority 2013, dated 2018)
# System: choroidal neovascularization (CNV)
# Experiment: laser irradiation-induced choroidal neovascularization mouse model (CNV model)
# Type: in vivo, male C57BL/6J mouse
# Details: oral 20 mg/kg, once on laser-induction day then twice per day; compared to vehicle (0.5% hydroxypropylmethylcellulose) oral group; t-test p<0.05; FIG. 1
# Description: As a result, VEGF is produced, and a new blood vessel is developed. Therefore, the CNV model is an experimental model showing the efficacy on a disease associated with ocular angiogenesis via VEGF.
# Using (2S)-[4-(carboxymethyl)thiazol-2-ylthio]-N-{[4-(3,4-dichlorobenzyl)morpholin-2-yl]methyl}acetamide hydrobromide as a test compound, the following experiment was performed.
# Laser was irradiated (6 spot irradiation) on one eye of male C57BL/6J mouse (7-week-old) to experimentally induce CNV.
# The mouse was intramuscularly administered (1 mL/kg) with a ketamine hydrochloride/xylazine hydrochloride (1:1, v/v) mixed solution into the thigh and, after systemic anesthesia, mydriasis was induced with mydriatic eye drops, and laser irradiation (wavelength 532 nm, spot size 50 μm, irradiation time 0.1 second, laser output 120 mW) was performed at 6 points while avoiding thick capillary in the retina. […]
# At 7 days from the laser irradiation, under systemic anesthesia by intramuscular administration (1 mL/kg) of a ketamine hydrochloride/xylazine hydrochloride (1:1, v/v) mixed solution into the thigh, a 4% FITC-dextran solution was administered at 0.5 mL/animal from the tail vein. […] Using a confocal microscope (OLYMPUS FV-1000D; magnification: ×20, number of pixels: 512 pixel×512 pixel), CNV site in a flat mount specimen was photographed, and measured using an image analysis software (NIH ImageJ). […]
structure (smiles),measurement,value
"Br.O=C(O)Cc1csc(SCC(=O)NC[C@H]2CN(Cc3ccc(Cl)c(Cl)c3)CCO2)n1 [test compound, (2S)-[4-(carboxymethyl)thiazol-2-ylthio]-N-{[4-(3,4-dichlorobenzyl)morpholin-2-yl]methyl}acetamide hydrobromide]",CNV area after 7 days from laser irradiation (CNV suppressive effect),significant CNV suppressive effect
